Literature values, collected in patent US10758505B2, “Therapeutic compositions and methods” (Innovus Pharmaceuticals, Inc., priority 2017, dated 2020).

Assays:
[1] = target: P-glycoprotein (Homo sapiens, UniProt P08183)
[2] = target: human CYP3A4 (Homo sapiens, UniProt P08684)
Sequence of human CYP3A4 (P08684 whole entry): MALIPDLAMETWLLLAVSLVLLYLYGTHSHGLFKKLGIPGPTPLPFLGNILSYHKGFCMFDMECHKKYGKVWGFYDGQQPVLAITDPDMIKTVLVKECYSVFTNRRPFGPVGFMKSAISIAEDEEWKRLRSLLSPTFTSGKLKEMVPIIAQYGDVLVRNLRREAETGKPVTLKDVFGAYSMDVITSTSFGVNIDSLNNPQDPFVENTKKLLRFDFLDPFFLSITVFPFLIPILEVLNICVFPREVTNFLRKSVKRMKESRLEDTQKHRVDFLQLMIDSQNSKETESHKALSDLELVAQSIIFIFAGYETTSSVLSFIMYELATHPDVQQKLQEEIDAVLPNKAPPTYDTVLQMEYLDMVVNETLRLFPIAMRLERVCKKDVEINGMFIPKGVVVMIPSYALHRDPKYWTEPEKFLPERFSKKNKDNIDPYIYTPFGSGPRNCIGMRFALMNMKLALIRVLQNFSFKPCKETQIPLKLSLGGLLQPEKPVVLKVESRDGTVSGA

Sequence of P-glycoprotein (P08183 whole entry): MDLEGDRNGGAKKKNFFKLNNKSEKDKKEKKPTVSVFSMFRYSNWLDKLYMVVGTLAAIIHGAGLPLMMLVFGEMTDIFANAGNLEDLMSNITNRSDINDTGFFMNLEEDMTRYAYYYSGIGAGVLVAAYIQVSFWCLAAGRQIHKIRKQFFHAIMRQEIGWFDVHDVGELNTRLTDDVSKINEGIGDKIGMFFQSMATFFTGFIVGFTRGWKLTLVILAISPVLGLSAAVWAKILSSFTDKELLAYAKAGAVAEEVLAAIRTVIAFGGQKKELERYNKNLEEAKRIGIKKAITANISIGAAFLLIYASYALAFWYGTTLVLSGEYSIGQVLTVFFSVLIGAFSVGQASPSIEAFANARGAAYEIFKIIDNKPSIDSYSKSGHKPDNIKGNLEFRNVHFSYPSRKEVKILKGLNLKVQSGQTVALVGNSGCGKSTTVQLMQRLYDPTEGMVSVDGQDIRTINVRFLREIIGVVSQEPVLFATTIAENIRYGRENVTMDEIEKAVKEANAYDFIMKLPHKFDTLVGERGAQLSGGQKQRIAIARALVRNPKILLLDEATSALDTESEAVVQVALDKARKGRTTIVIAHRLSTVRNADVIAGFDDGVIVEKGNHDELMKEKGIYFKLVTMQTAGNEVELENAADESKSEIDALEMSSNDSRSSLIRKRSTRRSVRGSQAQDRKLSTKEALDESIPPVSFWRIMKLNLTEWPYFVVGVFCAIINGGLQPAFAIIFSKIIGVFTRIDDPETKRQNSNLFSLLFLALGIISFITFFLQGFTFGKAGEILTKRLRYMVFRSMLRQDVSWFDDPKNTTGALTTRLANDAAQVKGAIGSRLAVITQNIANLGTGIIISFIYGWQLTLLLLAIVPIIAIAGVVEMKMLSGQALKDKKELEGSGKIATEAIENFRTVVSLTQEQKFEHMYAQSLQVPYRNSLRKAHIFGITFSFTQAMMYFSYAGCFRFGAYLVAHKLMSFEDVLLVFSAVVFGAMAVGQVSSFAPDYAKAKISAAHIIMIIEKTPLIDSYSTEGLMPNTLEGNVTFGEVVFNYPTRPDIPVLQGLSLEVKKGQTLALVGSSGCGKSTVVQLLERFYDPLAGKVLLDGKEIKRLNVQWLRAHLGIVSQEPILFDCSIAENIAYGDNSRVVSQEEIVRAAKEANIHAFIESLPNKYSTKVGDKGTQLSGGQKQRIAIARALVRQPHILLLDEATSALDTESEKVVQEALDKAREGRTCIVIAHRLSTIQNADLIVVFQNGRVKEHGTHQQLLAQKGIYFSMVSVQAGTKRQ

Compound: O=C(/C=C/C=C/c1ccc2c(c1)OCO2)N1CCCCC1 [Bioperine®, (2E,4E)-5-(1,3-benzodioxol-5-yl)-1-(piperidin-1-yl)penta-2,4-dien-1-one]
- inhibition of P-glycoprotein [1]: inhibits
- inhibition of human CYP3A4 [2]: inhibits
